Several values for one entry are separate records, joined by “and”; a condition that tells them apart may be missing. Identical values can stand only once. Entries after “also recorded” stand apart in the source; their conditions may differ.
Legend:
delF508-CFTR = delF508-CFTR (Homo sapiens, UniProt P13569, DEL508-508); test: Western blot of delF508-CFTR membrane (surface) expression, Band C; assay type: cell-based; set-up: delF508 stably-transfected C127 cells were cultured in DMEM with 10% FBS in 6-well plates; expressed in transfected cells; host or cells: C127 cells stably expressing delF508-CFTR; details: for influence on the effect of Lumacaftor (VX-809) on membrane expression of delF508-CFTR (words): added to 3 μM VX-809
Description: The amount of CFTR proteins in the cell membrane can be determined with Western blot analysis. Like all membrane proteins in the cell, the CFTR protein is synthesized in the endoplasmic reticulum (ER), translocated to the Golgi apparatus for glycosylation before trafficked to the plasma membrane. Because of the addition of complex sugar molecules to CFTR, the molecular weight of “mature” or post-Golgi CFTR in the plasma membrane is higher than that of newly synthesized proteins in the ER. Thus, in Western blot, it is possible to discern two distinct bands: band C representing high molecular weight, mature CFTR, and band B low molecular weight, immature CFTR. While wild-type proteins are present mostly as band C, Class II disease-associated mutations such as delF508 causes a drastic diminution of band C, resulting in an effective decrease of N in the formula N×Po×i. The effects of the reagents (or CFTR correctors) that enhance band C can thus be quantitatively assessed with the Western blot analysis. By the same token, any interactions between different compounds, with positive or negative impact on band C, can be determined with this assay.
Western blot experiments were carried out in both transient expression system (CHO cells) and a stable cell line (C127 cells). CHO cells, grown in 35 mm dishes, were transfected with delF508-CFTR construct in pcDNA plasmids using X-tremeGENE (Roche). Six hours after transfection, tested compounds were added to the medium. In case of delF508-CFTR-expressing stable C127 cells, compounds were added to the medium at about 30% confluence. In both cases, cells were lysed 18 hours post drug treatment using 1×SDS loading buffer. Cell lysates were sheared by pushed through 18G needles. Whole cell lysate were separated in 4˜20% gradient gels (Bio-Rad Laboratories) and transferred onto nitrocellulose membranes. The membranes were blocked with 5% milk in TBST buffer (20 mM Tris, 137 mM NaCl, 0.1% Tween 20) at 4° C. overnight. The membranes were then probed with anti-CFTR antibody (AB596 from the Cystic Fibrosis Foundation) and anti-vimentin antibody as a control (Santa Cruz Biotechnology) at room temperature for two hours. The membranes were washed with TBST five times and then incubated with anti-mouse IgG, HRP-linked antibody (Cell Signaling Technology) at room temperature for one hour. The membranes were washed three times with TBST and developed with chemiluminescence reagent (Thermo Scientific). The luminescence was detected and quantified by a Molecular Image Chemi Doc (Bio-Rad Laboratories).
For Western blotting experiments, delF508 stably-transfected C127 cells were cultured in DMEM with 10% FBS in 6-well plates. Different tested compounds were added to the culture medium within 24 hours of passage to the desired concentration. Cells were lysed 18 hours post drug treatment using 1×SDS loading buffer. Cell lysates were sheared by pushed through 18G needles. Whole cell lysates were separated in 4-20% gradient gels (Bio-Rad Laboratories) and transferred onto nitrocellulose membranes. The membranes were blocked with 5% milk in TBST buffer (20 mM Tris, 137 mM NaCl, 0.1% Tween 20) at 4° C. overnight. The membranes were then probed with anti-CFTR antibody (AB660 from CFTR foundation) and anti-vimentin antibody as a loading control (Santa Cruz Biotechnology) at room temperature for two hours. The membranes were washed with TBST five times and then incubated with anti-mouse IgG, HRP linked antibody (Cell Signaling Technology) at room temperature for one hour. The membranes were washed three times with TBST and developed with chemiluminescence reagent (Thermo Scientific). The luminescence was detected by a Molecular Image Chemi Doc (Bio-Rad Laboratories). […]

G551D-CFTR = molecular target: T1, G551D-CFTR (Homo sapiens, UniProt P13569, G551D); details: cited from earlier work
T1 construct: The cDNA constructs of CFTR (G551D and delF508) were co-transfected with peGFP-C3; expressed in transfected cells; host or cells: CHO cells (ATCC), transient co-transfection with pEGFP-C3 (GFP as a separate marker, not fused)
T1 sequence (P13569 whole entry G551D, the tested form may be a part): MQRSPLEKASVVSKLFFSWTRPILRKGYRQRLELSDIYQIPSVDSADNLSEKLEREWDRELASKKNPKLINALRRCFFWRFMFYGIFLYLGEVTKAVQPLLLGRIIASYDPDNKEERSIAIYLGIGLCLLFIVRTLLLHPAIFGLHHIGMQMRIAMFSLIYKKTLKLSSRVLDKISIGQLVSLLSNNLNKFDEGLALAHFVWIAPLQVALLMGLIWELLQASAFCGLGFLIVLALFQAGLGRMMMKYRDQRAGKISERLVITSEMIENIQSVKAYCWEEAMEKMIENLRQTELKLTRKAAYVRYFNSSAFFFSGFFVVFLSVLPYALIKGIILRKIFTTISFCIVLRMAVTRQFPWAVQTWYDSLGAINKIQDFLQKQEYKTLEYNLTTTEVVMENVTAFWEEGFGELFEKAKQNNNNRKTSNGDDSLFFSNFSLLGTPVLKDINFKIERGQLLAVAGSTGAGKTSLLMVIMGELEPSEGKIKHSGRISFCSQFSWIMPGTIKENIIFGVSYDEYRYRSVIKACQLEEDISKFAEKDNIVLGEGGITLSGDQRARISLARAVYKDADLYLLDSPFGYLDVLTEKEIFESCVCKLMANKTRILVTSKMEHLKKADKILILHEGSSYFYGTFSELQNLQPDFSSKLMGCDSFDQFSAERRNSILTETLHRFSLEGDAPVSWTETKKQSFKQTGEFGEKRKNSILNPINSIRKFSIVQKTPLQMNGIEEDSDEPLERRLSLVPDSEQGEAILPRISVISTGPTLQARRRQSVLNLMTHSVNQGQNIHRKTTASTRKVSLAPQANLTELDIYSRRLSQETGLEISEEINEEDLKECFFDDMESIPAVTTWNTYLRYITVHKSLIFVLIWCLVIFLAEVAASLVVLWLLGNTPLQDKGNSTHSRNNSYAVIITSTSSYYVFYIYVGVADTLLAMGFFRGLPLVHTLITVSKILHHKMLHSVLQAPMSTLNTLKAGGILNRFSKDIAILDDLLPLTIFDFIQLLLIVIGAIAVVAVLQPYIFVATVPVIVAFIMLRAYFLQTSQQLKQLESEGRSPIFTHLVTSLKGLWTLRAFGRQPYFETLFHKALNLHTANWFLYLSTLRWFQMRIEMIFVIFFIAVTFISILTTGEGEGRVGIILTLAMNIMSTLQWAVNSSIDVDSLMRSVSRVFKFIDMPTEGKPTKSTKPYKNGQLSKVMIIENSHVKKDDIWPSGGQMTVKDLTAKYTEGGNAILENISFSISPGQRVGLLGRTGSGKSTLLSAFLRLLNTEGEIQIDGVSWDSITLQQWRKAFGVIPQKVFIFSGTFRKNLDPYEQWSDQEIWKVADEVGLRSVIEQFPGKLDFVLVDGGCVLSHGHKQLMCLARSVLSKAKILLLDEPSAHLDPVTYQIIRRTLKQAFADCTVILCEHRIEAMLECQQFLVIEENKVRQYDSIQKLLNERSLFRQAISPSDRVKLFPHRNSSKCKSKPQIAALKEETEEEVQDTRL

Sequence of delF508-CFTR (P13569 with tags, fused parts or gaps DEL508-508): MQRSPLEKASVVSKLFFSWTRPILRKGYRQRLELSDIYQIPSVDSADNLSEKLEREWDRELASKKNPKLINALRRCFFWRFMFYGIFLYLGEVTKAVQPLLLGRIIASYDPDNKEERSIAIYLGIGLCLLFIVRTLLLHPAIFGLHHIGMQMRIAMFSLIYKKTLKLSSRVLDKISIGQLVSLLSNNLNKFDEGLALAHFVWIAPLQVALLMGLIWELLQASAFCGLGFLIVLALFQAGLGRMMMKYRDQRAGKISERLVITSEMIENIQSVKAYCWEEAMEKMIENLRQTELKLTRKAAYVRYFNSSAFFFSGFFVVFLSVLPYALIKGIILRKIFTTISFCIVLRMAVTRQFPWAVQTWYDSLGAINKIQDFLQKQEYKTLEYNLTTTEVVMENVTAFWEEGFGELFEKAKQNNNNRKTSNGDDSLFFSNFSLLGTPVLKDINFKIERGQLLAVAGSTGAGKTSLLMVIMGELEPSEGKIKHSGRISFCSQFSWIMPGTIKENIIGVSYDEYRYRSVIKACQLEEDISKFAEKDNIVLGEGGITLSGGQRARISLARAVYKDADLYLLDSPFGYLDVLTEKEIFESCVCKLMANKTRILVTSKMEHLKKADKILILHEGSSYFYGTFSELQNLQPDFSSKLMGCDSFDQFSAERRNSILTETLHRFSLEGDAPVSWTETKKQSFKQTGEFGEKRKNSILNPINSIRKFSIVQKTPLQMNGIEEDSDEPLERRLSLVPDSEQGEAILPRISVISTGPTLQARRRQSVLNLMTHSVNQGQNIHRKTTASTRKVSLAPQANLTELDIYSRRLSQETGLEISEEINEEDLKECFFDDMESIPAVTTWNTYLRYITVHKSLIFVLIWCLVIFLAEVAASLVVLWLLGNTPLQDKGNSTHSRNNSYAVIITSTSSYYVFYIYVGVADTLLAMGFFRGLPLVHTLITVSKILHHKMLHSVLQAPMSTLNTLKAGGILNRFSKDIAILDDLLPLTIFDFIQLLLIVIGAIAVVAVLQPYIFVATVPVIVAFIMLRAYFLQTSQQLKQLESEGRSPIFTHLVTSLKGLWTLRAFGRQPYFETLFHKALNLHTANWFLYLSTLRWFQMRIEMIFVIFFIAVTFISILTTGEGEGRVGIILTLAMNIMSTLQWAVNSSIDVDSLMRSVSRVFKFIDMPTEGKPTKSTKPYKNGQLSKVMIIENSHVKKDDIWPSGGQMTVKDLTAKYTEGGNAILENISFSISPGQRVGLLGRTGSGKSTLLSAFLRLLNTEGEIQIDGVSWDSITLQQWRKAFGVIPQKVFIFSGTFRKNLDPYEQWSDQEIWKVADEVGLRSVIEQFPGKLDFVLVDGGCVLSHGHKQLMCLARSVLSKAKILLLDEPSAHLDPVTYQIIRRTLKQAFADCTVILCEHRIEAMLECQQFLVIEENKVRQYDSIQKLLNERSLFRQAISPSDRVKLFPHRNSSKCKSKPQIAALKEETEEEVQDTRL

In the case of CC(C)(C)c1cc(C(C)(C)C)c(NC(=O)c2c[nH]c3ccccc3c2=O)cc1O [VX-770, Ivacaftor, reference compound], the “surface expression of delF508-CFTR (Band C, corrected to vimentin, DMSO = 100)” value (delF508-CFTR; 3 μM VX-809 + 1 μM VX-770, C127 cells, lane 6, one value per experiment series) was 334 ± 81, N = 5 and 182 ± 57, N = 4 and 172 ± 50, N = 4, the “influence on the effect of Lumacaftor (VX-809) on membrane expression of delF508-CFTR (words)” value (delF508-CFTR) was “dampens this effect; also recorded: dampens the effect of VX-809” and the “influence on the effect of Lumacaftor (VX-809) on membrane expression of delF508-CFTR (words)” value (delF508-CFTR; listed as Ivacaftor) was “diminishes the effect of Lumacaftor”. The “increase of the Po of G551D-CFTR” value (G551D-CFTR; Jih et al., PNAS 2013) was 8-10 folds and the “function of G551D-CFTR relative to wild-type / normal” value (G551D-CFTR; with Ivacaftor, literature) was < 10% and ~10%.

From patent US20190210973A1, “COMPOUNDS AND METHODS FOR TREATMENT OF CYSTIC FIBROSIS” (The Curators of the University of Missouri, priority 2018, published 2019)
